Assay results as given in BindingDB's records for doi:10.1111/j.1476-5381.1995.tb14977.x (Syntex Discovery Research, 1995).
Several values for one entry are separate records, joined by “and”; a condition that tells them apart may be missing. Equal values may be shown once.

Tests used:
[1] = target: 5-hydroxytryptamine receptor 2B (Homo sapiens, UniProt P41595)
[2] = target: T1, 5-hydroxytryptamine receptor 2C (Homo sapiens, UniProt P28335)
T1 sequence (P28335 whole entry): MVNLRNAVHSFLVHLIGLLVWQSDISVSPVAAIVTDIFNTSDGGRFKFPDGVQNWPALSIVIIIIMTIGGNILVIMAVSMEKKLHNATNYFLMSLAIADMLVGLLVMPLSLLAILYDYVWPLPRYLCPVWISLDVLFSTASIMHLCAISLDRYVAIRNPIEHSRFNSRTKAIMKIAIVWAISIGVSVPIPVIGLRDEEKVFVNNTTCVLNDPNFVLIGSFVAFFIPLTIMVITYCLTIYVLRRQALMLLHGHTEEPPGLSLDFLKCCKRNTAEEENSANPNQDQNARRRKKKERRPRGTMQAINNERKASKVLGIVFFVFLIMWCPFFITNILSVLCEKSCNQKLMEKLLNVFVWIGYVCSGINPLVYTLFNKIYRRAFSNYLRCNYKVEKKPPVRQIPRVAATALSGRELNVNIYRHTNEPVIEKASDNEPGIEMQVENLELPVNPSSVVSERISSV

[3] = target: T2, 5-hydroxytryptamine receptor 2C (Rattus norvegicus, UniProt P08909)
T2 sequence (P08909 whole entry): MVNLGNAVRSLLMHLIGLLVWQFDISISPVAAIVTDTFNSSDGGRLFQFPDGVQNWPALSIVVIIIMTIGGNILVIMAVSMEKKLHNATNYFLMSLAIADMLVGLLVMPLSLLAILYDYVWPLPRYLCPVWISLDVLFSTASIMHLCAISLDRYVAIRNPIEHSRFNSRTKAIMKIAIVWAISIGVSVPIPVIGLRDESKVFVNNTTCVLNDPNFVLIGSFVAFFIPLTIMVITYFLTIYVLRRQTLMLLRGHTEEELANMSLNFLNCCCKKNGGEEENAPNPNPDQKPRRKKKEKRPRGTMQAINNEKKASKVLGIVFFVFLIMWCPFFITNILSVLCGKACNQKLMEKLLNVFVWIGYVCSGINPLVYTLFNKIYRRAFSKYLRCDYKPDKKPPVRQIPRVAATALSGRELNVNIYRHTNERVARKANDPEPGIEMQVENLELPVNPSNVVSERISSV

[4] = target: 5-hydroxytryptamine receptor 2B (Rattus norvegicus, UniProt P30994)
Chain of 5-hydroxytryptamine receptor 2B (Rattus norvegicus, UniProt P30994) (P30994 whole entry): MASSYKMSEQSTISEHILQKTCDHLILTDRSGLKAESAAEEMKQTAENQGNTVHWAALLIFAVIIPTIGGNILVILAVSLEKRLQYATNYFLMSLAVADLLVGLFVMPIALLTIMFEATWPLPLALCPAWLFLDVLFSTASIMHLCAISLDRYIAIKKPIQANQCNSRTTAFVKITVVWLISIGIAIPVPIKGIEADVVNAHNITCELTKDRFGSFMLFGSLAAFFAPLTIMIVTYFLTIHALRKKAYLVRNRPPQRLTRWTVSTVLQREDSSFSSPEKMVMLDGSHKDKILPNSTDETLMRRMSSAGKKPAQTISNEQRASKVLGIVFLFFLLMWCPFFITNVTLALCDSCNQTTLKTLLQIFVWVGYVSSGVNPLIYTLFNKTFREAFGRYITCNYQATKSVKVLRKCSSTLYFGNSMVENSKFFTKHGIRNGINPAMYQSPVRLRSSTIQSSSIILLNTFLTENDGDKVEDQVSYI

Chain of 5-hydroxytryptamine receptor 2B (Homo sapiens, UniProt P41595) (P41595 whole entry): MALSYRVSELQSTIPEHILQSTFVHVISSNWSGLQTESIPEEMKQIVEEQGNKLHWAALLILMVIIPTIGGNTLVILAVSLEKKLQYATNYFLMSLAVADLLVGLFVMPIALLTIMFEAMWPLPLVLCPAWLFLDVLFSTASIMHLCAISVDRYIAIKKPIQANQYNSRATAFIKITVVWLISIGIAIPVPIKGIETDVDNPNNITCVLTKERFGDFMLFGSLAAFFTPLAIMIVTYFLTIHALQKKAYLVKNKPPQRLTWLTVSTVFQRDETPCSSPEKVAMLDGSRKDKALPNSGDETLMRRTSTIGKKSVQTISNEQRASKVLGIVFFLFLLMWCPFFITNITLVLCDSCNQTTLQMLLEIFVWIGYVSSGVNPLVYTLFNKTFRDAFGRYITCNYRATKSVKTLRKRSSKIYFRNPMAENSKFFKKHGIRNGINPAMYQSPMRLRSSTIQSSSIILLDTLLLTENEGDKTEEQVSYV

Row | SMILES | Ki [1] [µM] | Ki [2] | Ki [3] [µM] | Ki [4] [µM]
1 | Cc1nc2sccn2c(=O)c1CCN1CCC(=C(c2ccc(F)cc2)c2ccc(F)cc2)CC1 | 0.00501 | 0.00025 µM |  | 
2 | CC[C@@H](CO)NC(=O)[C@@H]1C=C2c3cccc4c3c(cn4C)C[C@H]2N(C)C1 |  | 0.00158 µM | 0.00199 | 
3 | O=C(c1ccc(F)cc1)C1CCN(CCn2c(=O)[nH]c3ccccc3c2=O)CC1 [3-(2-{4-[(4-fluorophenyl)carbonyl]piperidin-1-yl}ethyl)-1,2,3,4-tetrahydroquinazoline-2,4-dione] |  |  | 0.0631 | 3.98
4 | O=C(CCCN1CCC2(CC1)C(=O)NCN2c1ccccc1)c1ccc(F)cc1 [8-[4-(4-fluorophenyl)-4-oxidanylidene-butyl]-1-phenyl-1,3,8-triazaspiro[4.5]decan-4-one] | 1.58 | 0.501 µM and 1 µM |  | 
5 | Cn1ccc2cc(NC(=O)Nc3cccnc3)ccc21 [SB 200646] | 0.631 | 0.501 µM | 1 | 
6 | Clc1cccc(N2CCNCC2)c1 [mCPP] |  |  | 0.126 | 0.0251
7 | COC(=O)[C@@H]1[C@H]2C[C@H]3c4[nH]c5ccccc5c4CCN3C[C@@H]2CC[C@@H]1O [yohimbic acid methyl ester] |  |  | > 10 | 0.0501
